US11959929B2, “Method of quantifying lysergic acid diethylamide (LSD) and 2,3-dihydro-3-hydroxy-2-oxo lysergide (O-H-LSD) in human plasma” (Universitatsspital Basel, priority 2020, dated 2024)
Values joined by “and” are separate entries in the source; they are usually repeats but may differ in a detail not shown here. Equal entries are not always repeated.

Legend:
[1] = Freeze/thaw stability tests in human plasma (three cycles, about −20° C.); assay type: physicochemical; conditions: for Change in concentration [%]: 3 F/T cycles vs Baseline; for Accuracy: single QC replicate
Source text: (§1) Each analyte had to be stable in human plasma for at least three freeze-thaw cycles (for repeated sample preparations) and at ambient temperature for at least eight hours (maximal duration of sample preparation). Measured samples should be stable for a second injection when the first analytical run was not valid. The analytes had to be stable in the matrix at the intended storage temperatures and study duration.
(§2) An analyte was considered stable at one of the above tests when no increase or decrease of the analyte concentration of more than 15% for the mean of at least three analyzed QC samples at low, medium and at high concentration was observed.
Seven of each LLOQ, QCLOW, QCMID, QCHIGH, and ULOQ sample in human plasma were stored at about −20° C. for at least 24 hours and thawed unassisted at ambient temperature. When completely thawed, the samples were refrozen for at least 12 hours under the same conditions. The freeze-thaw cycle was repeated two more times. After the third cycle the samples were worked up and analyzed. The concentrations in the frozen and thawed samples were compared with freshly processed QC samples. Concentrations were calculated based on two freshly prepared CALs measured at the beginning and the other at the end of the validation run.

[2] = Reinjection reproducibility of worked-up plasma samples (overnight at 10° C. in autosampler; 1 week at −20° C.); assay type: physicochemical, human; conditions: for Change in concentration: 1 night at 10° C. in the autosampler vs Baseline; for Change in concentration [%]: 8 days at −20° C. vs Baseline; for Accuracy: single QC replicate
Source text: as §1, §2
Worked-up and measured Cal and QC samples (prepared in human plasma) of a valid run were repeatedly analyzed. Reinjection was performed after overnight storage at 10° C. (autosampler) and after 1-week storage at −20° C. The run was checked according to the acceptance criteria for validation runs. The calculated mean values for QC samples were compared between the original and reinjected run.

[3] = Clinical application: plasma concentration-time profile of LSD and O-H-LSD after a single oral 5 μg LSD dose in healthy volunteers; assay type: in vivo, human; conditions: three healthy volunteers
Protocol: To examine the application of the developed method, LSD and O-H-LSD concentrations were quantified in plasma samples of three healthy volunteers receiving a single oral dose of 5 μg. This corresponds to a very low LSD dose, used in LSD microdosing clinical trials (Holze et al., 2021a). The study was conducted in accordance with the Declaration of Helsinki and approved by the Medical Ethics Committee of the Academic Hospital of Maastricht and Maastricht University. The use of LSD in humans was authorized by the Dutch Drug Enforcement Administration. All volunteers provided written informed consent prior to study participation. To establish concentration time profiles, blood samples were collected in lithium heparin coated tubes at the following time points: 0, 0.5, 1, 1.5, 2, 3, 4, 6 after treatment. Blood samples were centrifuged, and plasma was frozen at −20° C. until analysis.
The application of the method was assessed by analyzing the PK of LSD and O-H-LSD in three healthy volunteers treated with an oral dose of 5 μg LSD base (FIG. 5). An oral dose of 5 μg LSD base in ethanol (Holze et al., 2021) was administered to three healthy volunteers. Plasma concentrations of LSD and O-H-LSD were quantified before and up to six hours post-treatment. […] Mean values and the standard deviations are illustrated.
The maximal plasma level of LSD and O-H-LSD was on average 178 pg/ml (SD: 30.6 pg/ml) and 10.4 pg/ml (SD: 2.59 pg/ml), respectively. LSD reached Tmax approximately after 1 hour post-treatment, whereas O-H-LSD peaked after 3 hours. The LSD concentrations measured after a dose of only 5 μg were approximately 7 to 18 times higher than the methods limit of quantification. Thus, the PK of LSD could straightforwardly be established also for very low so-called microdoses (Kuypers et al., 2019). In the case of O-H-LSD, a larger amount of plasma sample was required to determine the plasma concentration time profile after a dose of 5 μg. Three times more plasma was utilized (150 instead of 50 μl), which was extracted as outlined above using however three-fold more acetonitrile for the extraction. Sensitivity was increased by evaporating the extract and reconstituting the residue in a mixture of 150 μl of mobile phase A and mobile phase B (9/1 v/v). […] In future, it will also be considered to inject a larger amount of extract, which is in a first step retained and concentrated on a trapping column. In a second step, the direction of the flow is inverted and so that the sample can be loaded and eluted on the analytical column. This column switching procedure, will increase the sensitivity in the event that the sample can be retained on the trap column. Importantly, the time-consuming solvent evaporation step can thereby be avoided.

[4] = QCHIGH: 1000 pg/ml, 3 F/T cycles
[5] = ULOQ: 10000 pg/ml, 3 F/T cycles
[6] = LLOQ: 10 pg/ml, reinjection after 8 days at −20° C.
[7] = QCHIGH: 1000 pg/ml, reinjection after 8 days at −20° C.
[8] = QCLOW: 25 pg/ml, reinjection after 8 days at −20° C.
[9] = QCMID: 100 pg/ml, reinjection after 8 days at −20° C.
[10] = ULOQ: 10000 pg/ml, reinjection after 8 days at −20° C.

## CCN(CC)C(=O)C1C=C2c3cccc4c3C(O)(C[C@H]2N(C)C1)C(=O)N4 (some centres unmarked) [O-H-LSD, 2,3-dihydro-3-hydroxy-2-oxo lysergide]
[1]; LLOQ: 10 pg/ml, 3 F/T cycles
  Accuracy, Intra-assay Mean: 97%
  Found at, Intra-assay Mean: 9.7 pg/mL
  Accuracy: 95.9% and 97.1% and 81.7% and 95.2% and 108% and 104% and 73.9* %
[1]; LLOQ: 10 pg/ml
  Change in concentration [%]: 6.46%
[1]; LLOQ: 10 pg/ml, Baseline
  Accuracy, Intra-assay Mean: 91.1%
  Found at, Intra-assay Mean: 9.11 pg/mL
  Accuracy: 95% and 88.9% and 89.4%
[1]; [4]
  Accuracy, Intra-assay Mean: 96.7%
  Found at, Intra-assay Mean: 967 pg/mL
  Accuracy: 95% and 93.1% and 97.5% and 96.2% and 99.5% and 97.7% and 98.1%
[1]; QCHIGH: 1000 pg/ml
  Change in concentration [%]: 0.123%
[1]; QCHIGH: 1000 pg/ml, Baseline
  Accuracy, Intra-assay Mean: 96.6%
  Found at, Intra-assay Mean: 966 pg/mL
  Accuracy: 97.7% and 96.2% and 95.9%
[1]; QCLOW: 25 pg/ml, 3 F/T cycles
  Accuracy, Intra-assay Mean: 96.9%
  Found at, Intra-assay Mean: 24.2 pg/mL
  Accuracy: 109% and 96.6% and 91.4% and 101% and 97.5% and 89.3% and 92.9%
[1]; QCLOW: 25 pg/ml
  Change in concentration [%]: 1.57%
[1]; QCLOW: 25 pg/ml, Baseline
  Accuracy, Intra-assay Mean: 95.3%
  Found at, Intra-assay Mean: 23.8 pg/mL
  Accuracy: 94.7% and 91.5% and 99.8%
[1]; QCMID: 100 pg/ml, 3 F/T cycles
  Accuracy, Intra-assay Mean: 98.7%
  Found at, Intra-assay Mean: 98.7 pg/mL
  Accuracy: 95.4% and 102% (2×) and 98.9% and 100% and 94.8% and 97.3%
[1]; QCMID: 100 pg/ml
  Change in concentration [%]: 3.7%
[1]; QCMID: 100 pg/ml, Baseline
  Accuracy, Intra-assay Mean: 95.2%
  Found at, Intra-assay Mean: 95.2 pg/mL
  Accuracy: 95.7% and 98.6% and 91.4%
[1]; [5]
  Accuracy, Intra-assay Mean: 94.9%
  Found at, Intra-assay Mean: 9490 pg/mL
  Accuracy: 92.9% and 92.6% and 96.2% and 96% and 94.8% and 94.4% and 97.2%
[1]; ULOQ: 10000 pg/ml
  Change in concentration [%]: −0.589%
[1]; ULOQ: 10000 pg/ml, Baseline
  Accuracy, Intra-assay Mean: 95.4%
  Found at, Intra-assay Mean: 9540 pg/mL
  Accuracy: 94.2% and 92.3% and 99.7%
[1]; human plasma QC samples, −20° C., three freeze/thaw cycles, vs freshly processed QC
  Change in plasma concentration following three freeze/thaw cycles: ≤ 6.46%
[2]; LLOQ: 10 pg/ml
  Change in concentration: 1.86%
  Change in concentration [%]: −2.09%
[2]; QCHIGH: 1000 pg/ml
  Change in concentration: 2.08%
  Change in concentration [%]: −1.05%
[2]; QCLOW: 25 pg/ml
  Change in concentration: −0.149%
  Change in concentration [%]: −0.294%
[2]; QCMID: 100 pg/ml
  Change in concentration: −1.59%
  Change in concentration [%]: 1.9%
[2]; ULOQ: 10000 pg/ml
  Change in concentration: 0.101%
  Change in concentration [%]: −1.27%
[2]; LLOQ: 10 pg/ml, Baseline
  Accuracy, Intra-assay Mean: 107%
  Found at, Intra-assay Mean: 10.7 pg/mL
  Accuracy: 108% and 113% and 102% and 88.5% and 120% and 97.8% and 116%
[2]; [6]
  Accuracy, Intra-assay Mean: 104%
  Found at, Intra-assay Mean: 10.4 pg/mL
  Accuracy: 99.5% and 106% and 116% and 107% and 94.2% and 93.9% and 113%
[2]; QCHIGH: 1000 pg/ml, Baseline
  Accuracy, Intra-assay Mean: 103%
  Found at, Intra-assay Mean: 1030 pg/mL
  Accuracy: 103% (2×) and 105% (2×) and 99.6% and 99% and 106%
[2]; [7]
  Accuracy, Intra-assay Mean: 102%
  Found at, Intra-assay Mean: 1020 pg/mL
  Accuracy: 101% (2×) and 105% and 99.3% and 100% and 102% and 104%
[2]; QCLOW: 25 pg/ml, Baseline
  Accuracy, Intra-assay Mean: 105%
  Found at, Intra-assay Mean: 26.2 pg/mL
  Accuracy: 103% and 116* % and 108% (2×) and 109% and 101% and 100%
[2]; [8]
  Accuracy, Intra-assay Mean: 105%
  Found at, Intra-assay Mean: 26.1 pg/mL
  Accuracy: 104% (2×) and 115% and 109% and 96.5% and 108% and 97.3%
[2]; QCMID: 100 pg/ml, Baseline
  Accuracy, Intra-assay Mean: 103%
  Found at, Intra-assay Mean: 103 pg/mL
  Accuracy: 101% and 102% (2×) and 104% and 106% and 108% and 98.5%
[2]; [9]
  Accuracy, Intra-assay Mean: 105%
  Found at, Intra-assay Mean: 105 pg/mL
  Accuracy: 109% (2×) and 98% and 104% and 106% and 102% and 107%
[2]; ULOQ: 10000 pg/ml, Baseline
  Accuracy, Intra-assay Mean: 100%
  Found at, Intra-assay Mean: 10000 pg/mL
  Accuracy: 101% (2×) and 98.5% and 98.4% and 97.7% and 102% (2×)
[2]; [10]
  Accuracy, Intra-assay Mean: 98.8%
  Found at, Intra-assay Mean: 9880 pg/mL
  Accuracy: 97.3% and 97.6% and 97.5% and 96.9% and 103% and 98.8% and 101%
[2]; worked-up human plasma samples, 8 days at −20° C.
  Deviations of the means of the QCs of the two runs (reinjection) after 8 days at −20° C.: −2.09% to +1.9
[2]; worked-up human plasma samples, overnight at 10° C. in the autosampler
  Deviations of the means of the QCs of the two runs (reinjection) after overnight storage at 10° C.: −1.59% to +2.08
[3]; single oral dose of 5 μg LSD base
  Tmax (time of peak plasma level post-treatment): 3 h
[3]; single oral dose of 5 μg LSD base in ethanol, LC-MS/MS, O-H-LSD measured as metabolite using 150 μl plasma
  maximal plasma level (average): 10.4 pg/mL
